PMC12395054, “Targeting MDM2 homodimer and heterodimer disruption with DRx-098D in TP53 wild-type and mutant cancer cells” (Molecular Therapy Oncology, 2025)

What was measured:
[1] = test system: HCT116 TP53 null cells; assay: Cell viability (CellTiter Glo 2.0); type: cell-based, human; settings: 24 h, 2% FBS
Experimental: Immunocytochemistry. HCT116 TP53 null cells were seeded at 0.5 x 10^5 cells per well of a 12-well plate containing a sterilised 0.13-0.17mm glass coverslip in complete DMEM and incubated overnight. Cells were fixed in 4% paraformaldehyde (Sigma) for 15 minutes at room temperature, then permeabilised with 0.1% triton X100 (Sigma) for 4 minutes at room temperature. Cells were then blocked in 10% donkey serum, 1% BSA in PBS for 1 Hr at room temperature. Following blocking, cells were co-incubated in MDM2 (mouse) and MDMX (rabbit) primary antibodies overnight at 4 °C. Subsequently, secondary Alexa Fluor antibodies were co-incubated for a further 1 Hr at room temperature. […]
RTCA xCELLigence. Real-time cellular analysis (RTCA) of A549 cells was measured utilising the label-free cellular growth xCELLigence platform (Roche Applied Science, Agilent Technologies), where-by cellular impedance was leveraged as an indirect indicator of relative cell growth (i.e., cell index; CI). […] Relative growth (Δ growth) of treated A549 cells was assessed as a % difference of vehicle after 72 Hrs post-treatment (i.e., 100% relative cell growth at experiment endpoint).
Cell Viability. For MOLM-13, THP-1 (Fig. 3A), HCT116 TP53 wild-type, HCT116 TP53 null (Fig. 3D), HEK293, and IMR-90 (Fig. 3E) cells, relative cell viability was assessed via CellTiter Glo 2.0 Cell Viability Assay (Promega: […]

[2] = target: T1, MDM2:MDMX heterodimer (Homo sapiens, UniProt Q00987); assay: Proximity ligation assay, endogenous FL-MDM2 and MDMX in A549; type: cell-based; settings: A549 (TP53 WT), 10% FBS
T1 construct: PLA of endogenous FL-MDM2 and MDMX in A549; endogenous in cells; host or cells: A549
T1 sequence (Q00987 whole entry, one chain of several): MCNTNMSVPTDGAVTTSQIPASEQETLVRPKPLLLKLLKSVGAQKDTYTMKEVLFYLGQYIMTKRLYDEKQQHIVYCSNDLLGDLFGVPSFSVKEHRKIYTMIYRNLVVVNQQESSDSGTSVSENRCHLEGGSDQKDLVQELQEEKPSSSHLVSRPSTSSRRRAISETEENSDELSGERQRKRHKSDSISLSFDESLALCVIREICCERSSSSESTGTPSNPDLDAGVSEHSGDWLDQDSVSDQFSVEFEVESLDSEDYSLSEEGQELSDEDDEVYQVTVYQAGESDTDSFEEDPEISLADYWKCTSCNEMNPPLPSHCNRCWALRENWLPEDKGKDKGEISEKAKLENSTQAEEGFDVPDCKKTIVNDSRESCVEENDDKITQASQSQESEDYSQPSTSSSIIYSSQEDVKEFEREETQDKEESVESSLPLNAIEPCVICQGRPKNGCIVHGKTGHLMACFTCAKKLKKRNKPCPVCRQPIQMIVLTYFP

Endogenous MDM2 heterodimerization, PLA [2]: did not affect MDM2 heterodimerization
SMILES: COc1cc(C(=O)O)ccc1NC(=O)[C@@H]1N[C@@H](CC(C)(C)C)[C@](C#N)(c2ccc(Cl)cc2F)[C@H]1c1cccc(Cl)c1F [Idasanutlin]
Relative cell viability / anti-proliferative activity (in words) [1]: no anti-proliferative activity
